Results reported in PMC3815476 (Biochemistry, 2013).

Target: Shp (Streptococcus pyogenes, UniProt Q06A48, M66A)
Experiment: biochemical

Structure (SMILES): c1c[nH]cn1 [imidazole]
- Kd: 210 ± 11 µM
